Measurements: the supplement of paper PMC4862054

Each compound was assayed on HCC1143 (assay: normalised response (% of control), CellTox Green; higher = less cell death (100 = DMSO, 0 = benzethonium chloride kill control)). Conditions: incubation time: 72 h.
How it was run: (§1)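 For each plate, 0.1 % DMSO was set to 100 and a positive kill control to 0. Breast cancer cell lines (20 µl suspension) were seeded into 384-well plates already holding compound at 5 concentrations in 10-fold steps over a 10,000-fold range chosen per compound, and incubated for 72 h. CellTox Green fluorescence at 485/520 nm was read before CellTiter-Glo luminescence, which followed 10 min at room temperature. Each value is the normalised signal at one concentration.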
Work on CC[C@H](CC#N)OC(=O)N[C@@H](C)c1cccc(NC(=O)Nc2ccc(-c3cnco3)c(OC)c2)c1 [AVN944] (10000 nM) yielded a normalised response of 105%. In the case of CCc1cnn2c(NCc3ccc[n+]([O-])c3)cc(N3CCCC[C@H]3CCO)nc12 [Dinaciclib] (1000 nM), the normalised response is reported as 88.2%. Work on Cc1c(C(=O)Nc2ccc(N3C[C@@H](C)O[C@@H](C)C3)nc2)cccc1-c1ccc(OC(F)(F)F)cc1 [Erismodegib] (10000 nM) yielded a normalised response of 109%. COc1cc(Nc2ncc(F)c(Nc3ccc4c(n3)N(COP(=O)(O)O)C(=O)C(C)(C)O4)n2)cc(OC)c1OC [Fostamatinib] (2500 nM) gave a normalised response of 100%. With CC(C)NC[C@@H](C(=O)N1CCN(c2ncnc3c2[C@H](C)C[C@H]3O)CC1)c1ccc(Cl)cc1 [GDC-0068] (10000 nM) the normalised response was 110%. Compound CCCc1cc(C)[nH]c(=O)c1CNC(=O)c1cc(-c2ccnc(N3CCN(C)CC3)c2)cc2c1cnn2C(C)C [GSK343] (10000 nM) has a normalised response of 68.4%.

These compounds were tested on DU-4475 in the same assay as above. Conditions: incubation time: 72 h.
How it was run: as §1
Compound CC(C)(C)Cn1c(N)nc2ccc(-c3[nH]c(C(C)(C)C)nc3-c3ccc(F)cc3)nc21 (10000 nM) has a normalised response of 95.7%. Cn1cc(C[C@@H](N)C(=O)O)c2ccccc21 [1-methyl-D-tryptophan] (5000 nM) gave a normalised response of 96.5%. Work on CC[C@H](CC#N)OC(=O)N[C@@H](C)c1cccc(NC(=O)Nc2ccc(-c3cnco3)c(OC)c2)c1 [AVN944] (10000 nM) yielded a normalised response of 89.2%. With CCc1cnn2c(NCc3ccc[n+]([O-])c3)cc(N3CCCC[C@H]3CCO)nc12 [Dinaciclib] (1000 nM) the normalised response was 90.4%. Work on Cc1c(C(=O)Nc2ccc(N3C[C@@H](C)O[C@@H](C)C3)nc2)cccc1-c1ccc(OC(F)(F)F)cc1 [Erismodegib] (10000 nM) yielded a normalised response of 108%. Compound COc1cc(Nc2ncc(F)c(Nc3ccc4c(n3)N(COP(=O)(O)O)C(=O)C(C)(C)O4)n2)cc(OC)c1OC [Fostamatinib] (2500 nM) has a normalised response of 90.3%. CC(C)NC[C@@H](C(=O)N1CCN(c2ncnc3c2[C@H](C)C[C@H]3O)CC1)c1ccc(Cl)cc1 [GDC-0068] (10000 nM) gave a normalised response of 96.6%. CCCc1cc(C)[nH]c(=O)c1CNC(=O)c1cc(-c2ccnc(N3CCN(C)CC3)c2)cc2c1cnn2C(C)C [GSK343] (10000 nM) showed a normalised response of 92.7%.

What follows are compounds tested on CAL-148 in the same assay as above. Conditions: incubation time: 72 h.
How it was run: as §1
For CC(C)(C)Cn1c(N)nc2ccc(-c3[nH]c(C(C)(C)C)nc3-c3ccc(F)cc3)nc21 (10000 nM), the normalised response was 98.9%. In the case of Cn1cc(C[C@@H](N)C(=O)O)c2ccccc21 [1-methyl-D-tryptophan] (5000 nM), the normalised response is reported as 105%. CC[C@H](CC#N)OC(=O)N[C@@H](C)c1cccc(NC(=O)Nc2ccc(-c3cnco3)c(OC)c2)c1 [AVN944] (10000 nM) showed a normalised response of 67.1%. Compound CCc1cnn2c(NCc3ccc[n+]([O-])c3)cc(N3CCCC[C@H]3CCO)nc12 [Dinaciclib] (1000 nM) has a normalised response of 46.3%. With COc1cc(Nc2ncc(F)c(Nc3ccc4c(n3)N(COP(=O)(O)O)C(=O)C(C)(C)O4)n2)cc(OC)c1OC [Fostamatinib] (2500 nM) the normalised response was 67.6%. CC(C)NC[C@@H](C(=O)N1CCN(c2ncnc3c2[C@H](C)C[C@H]3O)CC1)c1ccc(Cl)cc1 [GDC-0068] (10000 nM) was tested, and the normalised response was 29.8%. Work on CCCc1cc(C)[nH]c(=O)c1CNC(=O)c1cc(-c2ccnc(N3CCN(C)CC3)c2)cc2c1cnn2C(C)C [GSK343] (10000 nM) yielded a normalised response of 85.5%.

Each compound was assayed on HDQ-P1 in the same assay as above. Conditions: incubation time: 72 h.
How it was run: as §1
CC(C)(C)Cn1c(N)nc2ccc(-c3[nH]c(C(C)(C)C)nc3-c3ccc(F)cc3)nc21 (10000 nM) gave a normalised response of 100%. Compound Cn1cc(C[C@@H](N)C(=O)O)c2ccccc21 [1-methyl-D-tryptophan] (5000 nM) has a normalised response of 60.4%. With CC[C@H](CC#N)OC(=O)N[C@@H](C)c1cccc(NC(=O)Nc2ccc(-c3cnco3)c(OC)c2)c1 [AVN944] (10000 nM) the normalised response was 94.6%. In the case of CCc1cnn2c(NCc3ccc[n+]([O-])c3)cc(N3CCCC[C@H]3CCO)nc12 [Dinaciclib] (1000 nM), the normalised response is reported as 48.4%. In the case of Cc1c(C(=O)Nc2ccc(N3C[C@@H](C)O[C@@H](C)C3)nc2)cccc1-c1ccc(OC(F)(F)F)cc1 [Erismodegib] (10000 nM), the normalised response is reported as 111%. COc1cc(Nc2ncc(F)c(Nc3ccc4c(n3)N(COP(=O)(O)O)C(=O)C(C)(C)O4)n2)cc(OC)c1OC [Fostamatinib] (2500 nM) showed a normalised response of 73.6%. CC(C)NC[C@@H](C(=O)N1CCN(c2ncnc3c2[C@H](C)C[C@H]3O)CC1)c1ccc(Cl)cc1 [GDC-0068] (10000 nM) gave a normalised response of 67.2%. CCCc1cc(C)[nH]c(=O)c1CNC(=O)c1cc(-c2ccnc(N3CCN(C)CC3)c2)cc2c1cnn2C(C)C [GSK343] (10000 nM) gave a normalised response of 80%.

These compounds were tested on CAL-120 in the same assay as above. Conditions: incubation time: 72 h.
How it was run: as §1
For CC(C)(C)Cn1c(N)nc2ccc(-c3[nH]c(C(C)(C)C)nc3-c3ccc(F)cc3)nc21 (10000 nM), the normalised response was 93.6%. With Cn1cc(C[C@@H](N)C(=O)O)c2ccccc21 [1-methyl-D-tryptophan] (5000 nM) the normalised response was 99.4%. In the case of CC[C@H](CC#N)OC(=O)N[C@@H](C)c1cccc(NC(=O)Nc2ccc(-c3cnco3)c(OC)c2)c1 [AVN944] (10000 nM), the normalised response is reported as 102%. In the case of CCc1cnn2c(NCc3ccc[n+]([O-])c3)cc(N3CCCC[C@H]3CCO)nc12 [Dinaciclib] (1000 nM), the normalised response is reported as 80.6%. Cc1c(C(=O)Nc2ccc(N3C[C@@H](C)O[C@@H](C)C3)nc2)cccc1-c1ccc(OC(F)(F)F)cc1 [Erismodegib] (10000 nM) was tested, and the normalised response was 101%. For COc1cc(Nc2ncc(F)c(Nc3ccc4c(n3)N(COP(=O)(O)O)C(=O)C(C)(C)O4)n2)cc(OC)c1OC [Fostamatinib] (2500 nM), the normalised response was 67.8%. With CC(C)NC[C@@H](C(=O)N1CCN(c2ncnc3c2[C@H](C)C[C@H]3O)CC1)c1ccc(Cl)cc1 [GDC-0068] (10000 nM) the normalised response was 104%. CCCc1cc(C)[nH]c(=O)c1CNC(=O)c1cc(-c2ccnc(N3CCN(C)CC3)c2)cc2c1cnn2C(C)C [GSK343] (10000 nM) showed a normalised response of 78.5%.
